Measurements: patent US20030092603A1, “Identification of specific modulators of bone formation” (priority 2001, published 2003)
Peptide text beside a SMILES is read from it. * marks the point of attachment. Cbz = O=C(OCc1ccccc1)*

Key:
[1] = system: neonatal murine calvarial bones; assay: Organ culture of neonatal murine calvarial bones, bone formation; type: cell-based, ICR Swiss mice; conditions: for effect on osteoblast differentiation and bone formation after transfection of trGli3: calvariae transfected with trGli3, epoxomicin 20 nM, 3 days, histology
Description: Organ cultures of neonatal murine calvarial bones were used as described by Traianedes, K., et al., Endocrinology (1998) 139:3178-3184. Bones were removed from the calvaria of 4-5 day old ICR Swiss mice and cultured in BGJ medium with 0.1% BSA for 72 hours together with test compounds. Mouse noggin/FC chimera was purchased from R&D Systems, Stillwater, Minn., and added at 2 μg/ml.
Neonatal murine calvariae were transfected with either empty vector or truncated Gli3 (trGli3) using lipofectamine plus reagents for the first 24 hours and then treated with epoxomicin (20 nM) for the remaining 3 days of the assay according to Traianedes, et al., 1998 (supra).

[2] = system: BMP-2 protein; assay: BMP-2 protein production by ELISA, MG-63 cell lysates; type: cell-based; conditions: cultured human MG-63 osteoblastic cells, 24 h
Description: MG-63 cells were plated in 12-well culture plates at the density of 2.5×10^5 cells/well and cultured with αMEM supplemented with 10% FCS for 24 h. The cells were treated with the proteasome inhibitors epoxomicin and PSI for 24 h. After incubation, the cell lysates were extracted with 150 μl lysis buffer (50 mM TrisHCl pH 8.0, 150 mM NaCl, 1% NP40) with protease inhibitors. The lysates were used to measure the BMP-2 protein production by ELISA.
For protein production, 96-well Dynatech white plates were coated with mouse anti-hBMP-2 monoclonal antibody (raised against rhBMP-2) at 1 μg/ml in PBS (100 μl/well) and incubated overnight at 4° C. The following procedures were performed at room temperature. The plates were washed 3 times with 300 μl of PBS-T wash buffer (PBS and 0.05% Tween) and then blocked with 300 μl 0.2% I-Block solution (0.2% I-Block in PBS-T, Applied Biosystems) for 2 h. 100 μl cell lysates were then added and incubated with coated antibody for 2 h. […] After 3 time washing with wash buffer and 3 time washing with assay buffer, the plates were incubated with 100 μl Tropix enzyme substrate (Applied Biosystems) in dark for 10 min and then read light emission with a Luminometer. rhBMP-2 (R&D) was used to generate the standard curve.

[3] = system: murine BMP-2 promoter (−2712/+165); assay: BMP-2 promoter-luciferase assay in stably transfected 2T3 cells; type: cell-based
Description: (§1) 2T3 murine osteoblast precursor cells and MG-63 human osteoblastic cells were cultured with α minimal essential medium (αMEM) supplemented with 10% fetal calf serum (FCS).
The cells were plated in 96-well culture plates and cultured for 24 h. The cells were then treated with different proteasome inhibitors or other compounds for additional 24 h. The cell lysates were extracted and luciferase activities were measured by a luciferase assay kit (Promega, Madison, Wis.) using a Luminometer.

[4] = system: Gli3; assay: Gli3 processing in 293 cells transfected with Flag-Gli3, Western blot; type: cell-based, human; conditions: for band of short form Gli3^85: FIG. 2a
Description: (§2) Full-length human Gli3 expression plasmid (pact-Flag-Gli3) was kindly provided by Dr. Shunsuke Ishii (Dai, P., et al., J. Biol. Chem. (1999) 274:8143-8152). The molecular weights for expressed Gli3 proteins by transfection of full-length Gli3 cDNA is about 190 kd (Gli3^190) and the processed form of Gli3 is about 85 kd (Gli3^85).
293 cells were plated in 6-well culture plates and cultured with Dulbecco's modified Eagle's medium (DMEM, Sigma). 24 hours after plating, the cells were transiently transfected with Flag-Gli3 cDNA (1 μg/well) and treated with 3-isobutyl-1-methylxanthine (IBMX, 200 μM) in the presence or absence of 1, 10 and 100 nM epoxomicin or PS-1. The steady-state protein levels of Gli3 precursor protein (Gli3^190) or processed form of Gli3 (Gli3^85) were detected by Western blot using anti-Flag antibody.

[5] = system: Gli3 precursor protein (Gli3^190); assay: Gli3 precursor (Gli3^190) degradation in C3H10T1/2 cells, Western blot; type: cell-based, mouse; conditions: IBMX 200 μM
Description: as §2
C3H10T1/2 multipotent progenitor cells were cultured with RPMI […] medium. The medium was purchased from Sigma (St. Louis, Mo.) and supplemented with 10% fetal calf serum (FCS). C3H10T1/2 cells were plated in 6-well culture plates at the density of 2×10^5 cells/well and transfected with Flag-Gli3 (2 μg/well) and treated with IBMX (200 μM) in the presence or absence of 10 and 20 nM of epoxomicin. Gli3^190 protein expression was detected by Western blot using anti-Flag antibody.

[6] = system: BMP-4 mRNA; assay: BMP-4 mRNA expression, MG-63 cells; type: cell-based; conditions: cultured human MG-63 osteoblastic cells
Description: as §1
(§3) MG-63 cells were plated in T-150 flasks at density of 2×10^6 cells per flask for RNA extraction. Total RNA was extracted from MG-63 cells using RNAzol B method (Tel-test Inc., Houston, Tex.). Enrichment of polyadenylated RNA was obtained using Stratagene oligo(dT) cellulose columns (Stratagene, San Diego, Calif.). 5 μg of poly (A^+) RNA was denatured in 2.2 M formaldehyde and 50% fornamide and run on an 1% agarose gel containing 2.2 M formaldehyde. The gels were transferred to a Nytran filter (Schleicher and Schuell, Keene, N.H.) by capillary blotting with 20× SSC (1× SSC=150 mM NaCl, 15 mM Na Citrate, pH 7.0). The RNA was then cross-linked to the filter by UV irradiation (Stratalink, Stratagene, San Diego, Calif.). Prehybridization was carried out at 56° C. in 5× SSC containing 50% formamide and 150 μg/ml of denatured salmon sperm DNA. After 1-2 h prehybridization, the DNA probes were added to the hybridization solution at a concentration of 5×10^5 cpm/ml. Hybridization was carried out for 15 h at 56° C. […] The filters were dried at room temperature, exposed at −70° C. overnight and then quantitated in cpm using an AMBIS Image Acquisition and Analysis System (AMBIS, San Diego, Calif.).

[7] = system: BMP-2 mRNA; assay: BMP-2 mRNA expression, Northern blot, MG-63 cells; type: cell-based; conditions: cultured human MG-63 osteoblastic cells
Description: as §1, §3

[8] = system: Smad1; assay: Smurf1-induced Smad1 degradation in C2C12 cells transfected with Smad1 and Smurf1; type: cell-based; conditions: 24 h
Description: Effects of proteasome inhibitors on steady-state levels of Smad1 protein were examined in C2C12 cells. C2C12 cells were plated in 6-well culture plates at density of 2×10^5 cells/well and cultured with DMEM supplemented with 10% FCS for 24 h. The cells were then transfected with Smad1 and Smurf1 expression plasmids. 24 h after transfection, the cells were treated with different proteasome inhibitors at different concentrations and incubated for additional 24 h.

[9] = system: endogenous Smad1; assay: Steady-state levels of endogenous Smad1 in C2C12 cells, Western blot; type: cell-based; conditions: 24 hours, vs control
Description: To determine the effects of proteasome inhibitors on the steady-state levels of endogenous Smad1 protein, C2C12 cells were plated in 6-well culture plates (2×10^5 cells/well) and cultured with DMEM supplemented with 10% FCS. 24 h later, proteasome inhibitors lactacystin (10 μM), MG-132 (2.5 and 5 μM), PS-1 (25 and 50 nM) were added into C2C12 cells. The cells were cultured with the proteasome inhibitors for 24 hours and then the cell lysates were extracted. The steady-state levels of endogenous Smad1 were analyzed by Western blot using Smad1 antibody (Santa Cruz).

[10] = noggin 2 μg/ml, 72 hours culture

noggin
effect of noggin on bone formation stimulated by aFGF [1, 10]: no effect
effect of noggin on bone stimulating effect of BMP-2 [1, 10]: inhibited
effect of noggin on bone stimulating effect of PS-1 [1, 10]: inhibited
effect of noggin on bone stimulating effect of epoxomicin [1, 10]: inhibited

aFGF: acidic fibroblast growth factor, unrelated anabolic agent
bone formation in calvarial cultures ([1]; 72 hours culture): bone formation stimulated
effect on osteoblast differentiation and bone formation after transfection of trGli3 [1]: no effect

CC[C@H](C)[C@H](NC(=O)[C@H]([C@@H](C)CC)N(C)C(C)=O)C(=O)N[C@H](C(=O)N[C@@H](CC(C)C)C(=O)[C@@]1(C)CO1)[C@@H](C)O [epoxomicin]
BMP-2 protein expression [2]: increased
potency as stimulators of BMP-2 expression compared with the statins [3]: considerably more potent
luciferase activity (BMP-2 promoter) ([3]; treated 24 h): increased
band of short form Gli3^85 ([4]; 1 nM epoxomicin): substantially reduced
band of short form Gli3^85 ([4]; 10 nM epoxomicin): abolished
Gli3 processing to its processed shorter form ([4]; IBMX 200 μM): impaired
degradation of Gli3 precursor protein (Gli3^190) [5]: prevent the degradation
expression of BMP-4 mRNA [6]: no effect
bone formation in calvarial cultures ([1]; 72 hours culture): bone stimulating effects
effect on osteoblast differentiation and bone formation after transfection of trGli3 [1]: impaired markedly
BMP-2 mRNA expression [7]: increased
Smurf1-induced Smad1 degradation ([8]; C2C12 cells, 10, 20 and 40 nM, FIG. 5c): partially or completely reversed

CC(C)C[C@@H](C=O)NC(=O)[C@H](CC(C)C)NC(=O)[C@H](CC(C)C)NC(=O)OCc1ccccc1 [MG-132] (Cbz-Leu-Leu-Leu-aldehyde)
increase of endogenous Smad1 protein level ([9]; 5 μM): 6.5 fold
Smurf1-induced Smad1 degradation ([8]; C2C12 cells, 5 μM): partially or completely reversed

CC(=O)N[C@@H](CSC(=O)[C@]1([C@@H](O)C(C)C)NC(=O)[C@H](C)[C@@H]1O)C(=O)O [lactacystin]
increase of endogenous Smad1 protein level ([9]; 10 μM): 3.7 fold
Smurf1-induced Smad1 degradation ([8]; C2C12 cells, 10 μM): partially or completely reversed
